Experimental data as given in ChEMBL document CHEMBL1129678, “Structure-activity relationships in a series of 2(1H)-quinolones bearing different acidic function in the 3-position: 6,7-dichloro-2(1H)-oxoquinoline-3-phosphonic acid, a new potent and selective AMPA/kainate antagonist with neuroprotective properties” (J Med Chem, 1996).
The source made the active and inactive calls. The rule behind the calls is not given here.

Experiments:
[1] = target: Glutamate receptor ionotropic, kainate; experiment: Antagonistic activity against rat ionotropic glutamate receptor ionotropic kainate in xenopus oocytes; type: functional, cell-based; conditions: oocyte
Glutamate NMDA receptor [2] = experiment: Antagonistic activity against N-methyl-D-aspartate glutamate receptor 1 in Xenopus oocytes; type: functional, cell-based; conditions: oocyte
[3] = target: AMPA receptor (Rattus norvegicus); experiment: Inhibitory activity against [3H]AMPA binding to rat cortical membranes
Glutamate NMDA receptor [4] = experiment: Inhibitory activity against [3H]glycine binding site of N-methyl-D-aspartate glutamate receptor 1 in rat cortical membranes; type: cell membranes, Membrane
[5] = Selectivity between AMPA/kainate receptor and NMDA/glycine receptor; parameters: reference not given here
Mus musculus [6] = experiment: Effective dose required to protect 50% of DBA/2 mice from audiogenic seizures, after ip administration; type: functional
Mus musculus [7] = experiment: Effective dose of a compound to […] 50% audiogenic seizures in DBA/2 mice when administered by ip (mg/Kg); type: functional
Mus musculus [8] = experiment: Effective dose of a compound to […] 50% audiogenic seizures in DBA/2 mice when administered by po (mg/kg); Not active; type: functional, organism-based
Gerbillinae [9] = experiment: %Protection against transient global ischemia in adult Mongolian gerbil at dose 10 mg/kg by ip administration tested against 10; type: functional; conditions: route intraperitoneal
Gerbillinae [10] = experiment: %Protection against transient global ischemia in adult Mongolian gerbil at dose 30 mg/kg by ip administration tested against 6; type: functional; conditions: route intraperitoneal
Gerbillinae [11] = experiment: %Protection against transient global ischemia in adult Mongolian gerbil at dose 10 mg/Kg by ip administration tested against 10; type: functional
Mus musculus [12] = experiment: Effective dose required to protect 50% of DBA/2 mice from audiogenic seizures, after po administration; type: functional
Gerbillinae [13] = experiment: %Protection against transient global ischemia in adult Mongolian gerbil at dose 30 mg/Kg by ip administration tested against 6; type: functional

SMILES | IC50 [1] [µM] | IC50 (Glutamate NMDA receptor [2]) [µM] | Selectivity [5] | further results
O=c1[nH]c2cc(Cl)c(Cl)cc2cc1P(=O)(O)O | 2.1 | 83.5 |  | IC50 [3]: 900 nM; IC50 (Glutamate NMDA receptor [4]): 111 µM
O=[N+]([O-])c1ccc2cc(P(=O)(O)O)c(O)nc2c1 | 1.4 | 57 | 41 | 
O=C(O)CSc1cc2ccc([N+](=O)[O-])cc2nc1O | 5 | > 100 | > 20 | 
O=P(O)(O)c1cc2cc(F)c(F)cc2nc1O | 65 | 111 | 1.71 | 
NC(=O)c1cc2ccc([N+](=O)[O-])cc2nc1O | > 300 | > 300 |  | 
O=C(Nc1nn[nH]n1)c1cc2ccc([N+](=O)[O-])cc2nc1O | 100 | > 16 | > 0.16 | 
O=[N+]([O-])c1ccc2cc(-c3nn[nH]n3)c(O)nc2c1 | 3 | > 16 | > 5 | 
O=P(O)(OCC1CCCC1)c1cc2cc(Cl)c(Cl)cc2nc1O | 15 | 74 | 5 | 
NS(=O)(=O)c1cccc2c1c([N+](=O)[O-])cc1nc(O)c(O)nc12 [NBQX] |  | 255 |  | ED50 (Mus musculus [8]): inactive; Protection (Gerbillinae [9]): 40%; Protection (Gerbillinae [10]): 50%; ED50 (Mus musculus [6]): 8 mg/kg; IC50 (Glutamate NMDA receptor [4]): > 500 µM
OB(O)c1cc2c(Cl)cc(Cl)cc2nc1O | > 100 | > 300 |  | 
O=[N+]([O-])c1ccc2cc(-c3nnc(O)o3)c(O)nc2c1 | > 100 | > 100 |  | 
O=C(NO)c1cc2ccc([N+](=O)[O-])cc2nc1O | 10 | > 100 | > 10 | 
O=c1[nH]c2cc([N+](=O)[O-])ccc2cc1-c1cc(O)n[nH]1 | > 30 | > 100 |  | 
O=P(O)(O)c1cc2cc(Cl)c(Cl)cc2nc1O |  |  | 39.8 | Protection (Gerbillinae [11]): 40%; ED50 (Mus musculus [12]): 45 mg/kg; ED50 (Mus musculus [6]): 19 mg/kg; Protection (Gerbillinae [13]): 100%

More lines, main results first:

IC50 [1] [µM] | IC50 (Glutamate NMDA receptor [2]) [µM] | Selectivity [5] | SMILES | further results
0.3 | 0.57 | 1.9 | O=C(O)c1cc2cc([N+](=O)[O-])c([N+](=O)[O-])cc2nc1O | ED50 (Mus musculus [6]): > 50 mg/kg; IC50 [3]: 150 nM; IC50 (Glutamate NMDA receptor [4]): 1.8 µM
15 | 40 | 2.6 | CCOP(=O)(O)c1cc2cc(Cl)c(Cl)cc2nc1O | 
> 100 | 51 | < 0.5 | CP(=O)(O)c1cc2c(Cl)cc(Cl)cc2nc1O | 
8 | 0.65 | 0.08 | O=C(O)c1cc2c(Cl)cc(Cl)cc2nc1O | 
10 | 0.81 | 0.08 | O=C(O)c1cc2cc(Cl)c(Cl)cc2nc1O | 
0.3 | 30.5 | 102 | O=c1[nH]c2cc(-n3ccnc3)c([N+](=O)[O-])cc2[nH]c1=O [YM-90K] | 
4 | 30 | 7.5 | O=P(O)(O)c1cc2c(Cl)cc(Cl)cc2nc1O | ED50 (Mus musculus [7]): > 50 mg/kg; IC50 [3]: 3500 nM; IC50 (Glutamate NMDA receptor [4]): 5.1 µM
0.16 | 0.16 | 1 | O=[N+]([O-])c1cc2cc(NS(=O)(=O)C(F)(F)F)c(O)nc2cc1[N+](=O)[O-] | ED50 (Mus musculus [6]): > 50 mg/kg; IC50 [3]: 90 nM; IC50 (Glutamate NMDA receptor [4]): 1.38 µM
1.3 | 6.5 | 5 | O=C(O)c1cc2ccc([N+](=O)[O-])cc2nc1O | 
0.15 | 51.5 | 343 | O=[N+]([O-])c1cc2cc(P(=O)(O)O)c(O)nc2cc1[N+](=O)[O-] | 
0.6 | 20 | 33 | O=[N+]([O-])c1cc2cc(-c3nn[nH]n3)c(O)nc2cc1[N+](=O)[O-] | 
